Assay results published in ChEMBL document CHEMBL5634077, “Recent advances in 1,2,3- and 1,2,4-triazole hybrids as antimicrobials and their SAR: A critical review” (2023).

Key:
Format in all cases: functional
Aspergillus niger = assay: Antifungal activity against Aspergillus niger MTCC 8189 assessed as inhibition of fungal growth
Bacillus subtilis [1] = assay: Antibacterial activity against Bacillus subtilis MTCC 441 assessed as reduction in microbial growth
[2] = tested on: Staphylococcus epidermidis; assay: Antibacterial activity against Staphylococcus epidermidis assessed as reduction in microbial growth
Escherichia coli = assay: Antibacterial activity against Escherichia coli MTCC 16521 assessed as reduction in microbial growth
Candida albicans = assay: Antifungal activity against Candida albicans MTCC 227 assessed as inhibition of fungal growth
Staphylococcus aureus [3] = assay: Antibacterial activity against Staphylococcus aureus assessed as reduction in microbial growth incubated for 18 to 24 hrs by serial dilution method; settings: time 18-24 hrs
Staphylococcus aureus [4] = assay: Antibacterial activity against methicillin-sensitive Staphylococcus aureus assessed as reduction in microbial growth incubated for 18 to 24 hrs by serial dilution method; settings: time 18-24 hrs
Staphylococcus aureus [5] = assay: Antibacterial activity against methicillin-resistant Staphylococcus aureus assessed as reduction in microbial growth incubated for 18 to 24 hrs by serial dilution method; settings: time 18-24 hrs
[6] = tested on: Staphylococcus epidermidis; assay: Antibacterial activity against Methicillin-sensitive Staphylococcus epidermidis assessed as bacterial growth inhibition
Staphylococcus aureus [7] = assay: Antibacterial activity against Methicillin-resistant Staphylococcus aureus assessed as bacterial growth inhibition
Enterococcus faecium = assay: Antibacterial activity against Enterococcus faecium assessed as inhibition of bacterial growth
[8] = tested on: Staphylococcus epidermidis; assay: Antibacterial activity against Methicillin-resistant Staphylococcus epidermidis assessed as bacterial growth inhibition
Enterococcus faecalis = assay: Antibacterial activity against Enterococcus faecalis assessed as bacterial growth inhibition
Staphylococcus aureus [9] = assay: Antibacterial activity against Methicillin-sensitive Staphylococcus aureus assessed as bacterial growth inhibition
[10] = tested on: Staphylococcus epidermidis; assay: Antibacterial activity against Staphylococcus epidermidis assessed as inhibition of bacterial growth by microdilution method
Staphylococcus aureus [11] = assay: Antibacterial activity against Staphylococcus aureus assessed as inhibition of bacterial growth by microdilution method
Bacillus subtilis [12] = assay: Antibacterial activity against Bacillus subtilis assessed as inhibition of bacterial growth by microdilution method

Measured: MIC

O=C(NCc1cn(CCCn2cc(CNC(=O)Nc3ccc(F)cc3)nn2)nn1)Nc1ccc(F)cc1
6 µM: Aspergillus niger | Bacillus subtilis [1] | [2] | Escherichia coli | Candida albicans

COc1ccc(NC(=O)NCc2cn(CCCCCCn3cc(CNC(=O)Nc4ccc(OC)cc4)nn3)nn2)cc1
6 µM: Aspergillus niger | Bacillus subtilis [1] | [2] | Escherichia coli | Candida albicans

COc1c(N2CCN(C(=O)Cn3cc(CN4C(=O)/C(=N/O)c5ccccc54)nn3)C(C)C2)c(F)cc2c(=O)c(C(=O)O)cn(C3CC3)c12 (configuration not stated)
0.03 µg/mL: Staphylococcus aureus [3] | Staphylococcus aureus [4] | Staphylococcus aureus [5]

CO/N=C1/C(=O)N(Cc2cn(CC(=O)N3CCN(c4c(F)cc5c(=O)c(C(=O)O)cn(C6CC6)c5c4OC)CC3C)nn2)c2c(F)cccc21 (configuration not stated)
0.03 µg/mL: Staphylococcus aureus [3] | Staphylococcus aureus [4] | Staphylococcus aureus [5]

COc1c(N2CCN(C(=O)Cn3cc(CN4C(=O)C(=O)c5ccccc54)nn3)C(C)C2)c(F)cc2c(=O)c(C(=O)O)cn(C3CC3)c12 (configuration not stated)
0.03 µg/mL: Staphylococcus aureus [3] | Staphylococcus aureus [4] | Staphylococcus aureus [5]

COc1c(N2CCN(C(=O)Cn3cc(CN4C(=O)/C(=N/O)c5cc(F)ccc54)nn3)C(C)C2)c(F)cc2c(=O)c(C(=O)O)cn(C3CC3)c12 (configuration not stated)
0.03 µg/mL: Staphylococcus aureus [3] | Staphylococcus aureus [4] | Staphylococcus aureus [5]

COc1c(N2CCN(C(=O)Cn3cc(CN4C(=O)C(=O)c5cccc(F)c54)nn3)C(C)C2)c(F)cc2c(=O)c(C(=O)O)cn(C3CC3)c12 (configuration not stated)
0.03 µg/mL: Staphylococcus aureus [3] | Staphylococcus aureus [4] | Staphylococcus aureus [5]

COc1c(N2C[C@H]3CCCN(C(=O)Cn4cc(CN5C(=O)C(=O)c6c(F)cccc65)nn4)[C@H]3C2)c(F)cc2c(=O)c(C(=O)O)cn(C3CC3)c12
0.06 µg/mL: [6] | Staphylococcus aureus [7] | Enterococcus faecium | [8] | Enterococcus faecalis | Staphylococcus aureus [9]

Fc1cc(-n2cc(COc3cccc4cccnc34)nn2)ccc1N1CCOCC1
50 µg/mL: Staphylococcus aureus [11]
25 µg/mL: [10] | Bacillus subtilis [12]

COc1ccc(NC(=O)NCc2cn(CCCCn3cc(CNC(=O)Nc4ccc(OC)cc4)nn3)nn2)cc1
6 µM: Bacillus subtilis [1] | [2] | Escherichia coli | Candida albicans
5 µM: Aspergillus niger

O=C(NCc1cn(Cc2cccc(Cn3cc(CNC(=O)Nc4ccc(F)cc4)nn3)c2)nn1)Nc1ccc(F)cc1
6 µM: Aspergillus niger | Bacillus subtilis [1] | [2] | Escherichia coli | Candida albicans

O=C(NCc1cn(CCCCCn2cc(CNC(=O)Nc3ccc(F)cc3)nn2)nn1)Nc1ccc(F)cc1
6 µM: Aspergillus niger | Bacillus subtilis [1] | [2] | Escherichia coli | Candida albicans

COc1ccc(NC(=O)NCc2cn(CCCn3cc(CNC(=O)Nc4ccc(OC)cc4)nn3)nn2)cc1
6 µM: Aspergillus niger | Bacillus subtilis [1] | [2] | Escherichia coli | Candida albicans

Fc1ccc(OCc2cn(-c3ccc(N4CCOCC4)c(F)c3)nn2)cc1
1.56 µg/mL: Bacillus subtilis [12]
3.12 µg/mL: [10] | Staphylococcus aureus [11]

CCO/N=C1/C(=O)N(Cc2cn(CC(=O)N3CCN(c4c(F)cc5c(=O)c(C(=O)O)cn(C6CC6)c5c4OC)CC3C)nn2)c2ccccc21 (configuration not stated)
0.03 µg/mL: Staphylococcus aureus [3] | Staphylococcus aureus [4] | Staphylococcus aureus [5]

O=C(NCc1cn(Cc2cccc(Cn3cc(CNC(=O)Nc4ccc(Cl)cc4)nn3)c2)nn1)Nc1ccc(Cl)cc1
6 µM: Aspergillus niger | Bacillus subtilis [1] | [2] | Escherichia coli | Candida albicans

CCO/N=C1/C(=O)N(Cc2cn(CC(=O)N3CCN(c4c(F)cc5c(=O)c(C(=O)O)cn(C6CC6)c5c4OC)CC3C)nn2)c2ccc(F)cc21 (configuration not stated)
0.03 µg/mL: Staphylococcus aureus [3] | Staphylococcus aureus [4] | Staphylococcus aureus [5]

O=C(NCc1cn(CCCCCCn2cc(CNC(=O)Nc3ccc(F)cc3)nn2)nn1)Nc1ccc(F)cc1
6 µM: Aspergillus niger | Bacillus subtilis [1] | [2] | Escherichia coli | Candida albicans

O=C(NCc1cn(CCCCn2cc(CNC(=O)Nc3ccc(F)cc3)nn2)nn1)Nc1ccc(F)cc1
6 µM: Aspergillus niger | Bacillus subtilis [1] | [2] | Escherichia coli | Candida albicans

CO/N=C1/C(=O)N(Cc2cn(CC(=O)N3CCN(c4c(F)cc5c(=O)c(C(=O)O)cn(C6CC6)c5c4OC)CC3C)nn2)c2ccc(F)cc21 (configuration not stated)
0.03 µg/mL: Staphylococcus aureus [3] | Staphylococcus aureus [4] | Staphylococcus aureus [5]

O=C1CSc2ccccc2N1Cc1cn(-c2ccc(N3CCOCC3)c(F)c2)nn1
1.56 µg/mL: Staphylococcus aureus [11]
25 µg/mL: [10]
6.25 µg/mL: Bacillus subtilis [12]

O=C(NCc1cn(CCCCCCn2cc(CNC(=O)Nc3ccc(Cl)cc3)nn2)nn1)Nc1ccc(Cl)cc1
6 µM: Aspergillus niger | Bacillus subtilis [1] | [2] | Escherichia coli | Candida albicans

Fc1cc(-n2cc(COc3cccc(Cl)c3)nn2)ccc1N1CCOCC1
25 µg/mL: Staphylococcus aureus [11] | Bacillus subtilis [12]
50 µg/mL: [10]
